In patent US9850256B2, “Antibacterial basic biaromatic derivatives with aminoalkoxy substitution” (priority 2014, dated 2017):
Converted amounts (≈) assume the structure as drawn.

Tests used:
Assay in all cases: Bacterial growth minimal inhibitory concentration (microdilution, cation-adjusted Mueller-Hinton Broth)
[1] = test system: S. aureus A798; assay type: cell-based, Staphylococcus aureus; conditions: multiply-resistant strain (methicillin- and quinolone-resistant); for MIC: Staphylococcus aureus, A798
Description: (§1) Minimal Inhibitory Concentrations (MICs; mg/L) were determined in cation-adjusted Mueller-Hinton Broth by a microdilution method following the description given in “Methods for Dilution Antimicrobial Susceptibility Tests for Bacteria that Grow Aerobically”, Approved standard, 7th ed., Clinical and Laboratory Standards Institute (CLSI) Document M7-A7, Wayne, Pa., USA (2006).
(§2) All Example compounds were tested against several Gram positive and Gram negative bacteria. […] Staphylococcus aureus A798 is a multiply-resistant strain (methicillin- and quinolone-resistant), Klebsiella pneumoniae T6474 is a multiply-resistant strain (penicillin-, cephalosporin- and in particular quinolone-resistant), while E. coli ATCC25922 and Pseudomonas aeruginosa ATCC 27853 are quinolone-sensitive strains.

[2] = test system: P. aeruginosa ATCC 27853; assay type: cell-based, Pseudomonas aeruginosa; conditions: quinolone-sensitive strain; for MIC: Pseudomonas aeruginosa, ATCC27853
Description: as §1, §2

[3] = test system: E. coli ATCC25922; assay type: cell-based; conditions: quinolone-sensitive strain; for MIC: Escherichia coli, ATCC25922
Description: as §1, §2

[4] = test system: K. pneumoniae T6474; assay type: cell-based, Klebsiella pneumoniae; conditions: multiply-resistant strain (penicillin-, cephalosporin- and quinolone-resistant); for MIC: Klebsiella pneumoniae, T6474
Description: as §1, §2

Row | SMILES | MIC [1] [µg/mL] | MIC [2] [µg/mL] | MIC [3] [µg/mL] | MIC [4] [µg/mL] | MIC for S. aureus A798 [1] [µg/mL] | MIC for P. aeruginosa ATCC 27853 [2] [µg/mL] | MIC for E. coli ATCC25922 [3] [µg/mL] | MIC for K. pneumoniae T6474 [4] [µg/mL]
1 | CC(CN)Oc1cccc(-c2cccc(CNCC[C@H]3CN(c4ccc5c(n4)NC(=O)CO5)C(=O)O3)c2)c1 (mixture of isomers) [Example 6, 6-((S)-5-(2-(((3′-(((RS)-1-aminopropan-2-yl)oxy)-[1,1′-biphenyl]-3-yl)methyl)amino)ethyl)-2-oxooxazolidin-3-yl)-2H-pyrido[3,2-b][1,4]oxazin-3(4H)-one] | 4 | 4 | 4 | 4 |  |  |  | 
2 | O=C1COc2ccc(N3C[C@H](CCNCc4cccc(-c5cccc(OC6CCNC6)c5)c4)OC3=O)nc2N1 (mixture of isomers) [Example $103, 6-[(S)-2-oxo-5-(2-{[3′-((RS)-pyrrolidin-3-yloxy)-biphenyl-3-ylmethyl]-amino}-ethyl)-oxazolidin-3-yl]-4H-pyrido[3,2-b][1,4]oxazin-3-one] | 2 | 1 | 1 | 1 |  |  |  | 
3 | O=C1COc2ccc(N3C[C@H](CCNCc4cccc(-c5cccc(OCC6CNCCO6)n5)c4)OC3=O)nc2N1.O=CO (mixture of isomers) [Example $109, 6-[(S)-5-(2-{3-[6-((RS)-1-morpholin-2-ylmethoxy)-pyridin-2-yl]-benzylamino}-ethyl)-2-oxo-oxazolidin-3-yl]-4H-pyrido[3,2-b][1,4]oxazin-3-one formate] | 0.5 | 1 | 1 | 2 |  |  |  | 
4 | O=C1COc2ccc(N3C[C@H](CCNCc4cccc(-c5cccc(OCC6COCCN6)n5)c4)OC3=O)nc2N1.O=CO (mixture of isomers) [Example $110, 6-[(S)-5-(2-{3-[6-((RS)-1-morpholin-3-ylmethoxy)-pyridin-2-yl]-benzylamino}-ethyl)-2-oxo-oxazolidin-3-yl]-4H-pyrido[3,2-b][1,4]oxazin-3-one formate] | 0.25 | 2 | 1 | 2 |  |  |  | 
5 | O=C1COc2ccc(N3C[C@H](CCNCc4cccc(-c5cccc(OC6CCCNC6)n5)c4)OC3=O)nc2N1.O=CO (mixture of isomers) [Example $111, 6-[(S)-2-oxo-5-(2-{3-[6-((RS)-piperidin-3-yloxy)-pyridin-2-yl]-benzylamino}-ethyl)-oxazolidin-3-yl]-4H-pyrido[3,2-b][1,4]oxazin-3-one formate] | 1 | 2 | 2 | 2 |  |  |  | 
6 | CCN1CCC(Oc2cccc(-c3cccc(CNCC[C@H]4CN(c5ccc6c(n5)NC(=O)CO6)C(=O)O4)c3)n2)C1 (mixture of isomers) [Example $126, 6-[(S)-5-(2-{3-[6-((RS)-1-ethyl-pyrrolidin-3-yloxy)-pyridin-2-yl]-benzylamino}-ethyl)-2-oxo-oxazolidin-3-yl]-4H-pyrido[3,2-b][1,4]oxazin-3-one] | 0.5 | 2 | 1 | 2 |  |  |  | 
7 | CC(C)N1CCC(Oc2cccc(-c3cccc(CNCC[C@H]4CN(c5ccc6c(n5)NC(=O)CO6)C(=O)O4)c3)n2)C1 (mixture of isomers) [Example $134, 6-[(S)-5-(2-{3-[6-((RS)-1-isopropyl-pyrrolidin-3-yloxy)-pyridin-2-yl]-benzylamino}-ethyl)-2-oxo-oxazolidin-3-yl]-4H-pyrido[3,2-b][1,4]oxazin-3-one] | 0.5 | 4 | 2 | 4 |  |  |  | 
8 | C[C@H]1NC[C@H]1Oc1cccc(-c2cccc(CNCC[C@H]3CN(c4ccc5c(n4)NC(=O)CO5)C(=O)O3)c2)n1 (mixture of isomers) [Example $135, 6-[(S)-5-(2-{3-[6-((2RS,3RS)-2-methyl-azetidin-3-yloxy)-pyridin-2-yl]-benzylamino}-ethyl)-2-oxo-oxazolidin-3-yl]-4H-pyrido[3,2-b][1,4]oxazin-3-one] | 0.5 | 0.5 | 0.5 | 1 |  |  |  | 
9 | CN1CCC[C@H](Oc2cccc(-c3cccc(CNCCC4CN(c5ccc6c(n5)NC(=O)CO6)C(=O)O4)c3)n2)C1 (mixture of isomers) [Example $142, 6-[(RS)-5-(2-{3-[6-((S)-1-methyl-piperidin-3-yloxy)-pyridin-2-yl]-benzylamino}-ethyl)-2-oxo-oxazolidin-3-yl]-4H-pyrido[3,2-b][1,4]oxazin-3-one] | 0.5 | 2 | 2 | 2 |  |  |  | 
10 | C[C@@H]1[C@H](Oc2cccc(-c3cccc(CNCC[C@H]4CN(c5ccc6c(n5)NC(=O)CO6)C(=O)O4)c3)n2)CN1C (mixture of isomers) [Example $178, 6-[(S)-5-(2-{3-[6-((2RS,3RS)-1,2-dimethyl-azetidin-3-yloxy)-pyridin-2-yl]-benzylamino}-ethyl)-2-oxo-oxazolidin-3-yl]-4H-pyrido[3,2-b][1,4]oxazin-3-one] | 0.125 | 1 | 0.5 | 1 |  |  |  | 
11 | NC1[C@H]2CN(CCOc3cccc(-c4cccc(CNCC[C@H]5CN(c6ccc7c(n6)NC(=O)CO7)C(=O)O5)c4)c3)C[C@@H]12 (mixture of isomers) [Example $117, 6-{(S)-5-[2-({3′-[2-((1R*,5S*,6RS)-6-amino-3-aza-bicyclo[3.1.0]hex-3-yl)-ethoxy]-biphenyl-3-ylmethyl}-amino)-ethyl]-2-oxo-oxazolidin-3-yl}-4H-pyrido[3,2-b][1,4]oxazin-3-one] |  |  |  |  | 1 | 4 | 1 | 1
12 | C[C@@H]1NCC[C@@H]1Oc1cccc(-c2cccc(CNCC[C@H]3CN(c4ccc5c(n4)NC(=O)CO5)C(=O)O3)c2)n1 (relative stereo) [Example $172, 6-[(S)-5-(2-{3-[6-((2S*,3S*)-2-methyl-pyrrolidin-3-yloxy)-pyridin-2-yl]-benzylamino}-ethyl)-2-oxo-oxazolidin-3-yl]-4H-pyrido[3,2-b][1,4]oxazin-3-one] | 0.5 (≈ 0.918 µM) | 0.5 (≈ 0.918 µM) | 1 (≈ 1.84 µM) | 2 (≈ 3.67 µM) |  |  |  | 
13 | C[C@@H]1CNC[C@H]1Oc1cccc(-c2cccc(CNCC[C@H]3CN(c4ccc5c(n4)NC(=O)CO5)C(=O)O3)c2)n1 (relative stereo) [Example $173, 6-[(S)-5-(2-{3-[6-((3S*,4R*)-4-methyl-pyrrolidin-3-yloxy)-pyridin-2-yl]-benzylamino}-ethyl)-2-oxo-oxazolidin-3-yl]-4H-pyrido[3,2-b][1,4]oxazin-3-one] | 0.5 (≈ 0.918 µM) | 1 (≈ 1.84 µM) | 1 (≈ 1.84 µM) | 2 (≈ 3.67 µM) |  |  |  | 
14 | C[C@H]1[C@@H](Oc2cccc(-c3cccc(CNCC[C@H]4CN(c5ccc6c(n5)NC(=O)CO6)C(=O)O4)c3)n2)CCN1C (relative stereo) [Example $176, 6-[(S)-5-(2-{3-[6-((2S*,3S*)-1,2-dimethyl-pyrrolidin-3-yloxy)-pyridin-2-yl]-benzylamino}-ethyl)-2-oxo-oxazolidin-3-yl]-4H-pyrido[3,2-b][1,4]oxazin-3-one] | 0.25 (≈ 0.448 µM) | 2 (≈ 3.58 µM) | 2 (≈ 3.58 µM) | 2 (≈ 3.58 µM) |  |  |  | 
15 | C[C@@H]1CN(C)C[C@H]1Oc1cccc(-c2cccc(CNCC[C@H]3CN(c4ccc5c(n4)NC(=O)CO5)C(=O)O3)c2)n1 (relative stereo) [Example $177, 6-[(S)-5-(2-{3-[6-((3S*,4R*)-1,4-dimethyl-pyrrolidin-3-yloxy)-pyridin-2-yl]-benzylamino}-ethyl)-2-oxo-oxazolidin-3-yl]-4H-pyrido[3,2-b][1,4]oxazin-3-one] | 0.5 (≈ 0.895 µM) | 4 (≈ 7.16 µM) | 2 (≈ 3.58 µM) | 4 (≈ 7.16 µM) |  |  |  | 
16 | CO[C@H]1CNC[C@H]1Oc1cccc(-c2cccc(CNCC[C@H]3CN(c4ccc5c(n4)NC(=O)CO5)C(=O)O3)c2)n1 (relative stereo) [Example $184, (3R*,4S*)-6-[(S)-5-(2-{3-[6-(4-methoxy-pyrrolidin-3-yloxy)-pyridin-2-yl]-benzylamino}-ethyl)-2-oxo-oxazolidin-3-yl]-4H-pyrido[3,2-b][1,4]oxazin-3-one] | 8 (≈ 14.3 µM) | 2 (≈ 3.57 µM) | 4 (≈ 7.14 µM) | 8 (≈ 14.3 µM) |  |  |  | 
17 | N[C@@H]1CC[C@H](Oc2cccc(-c3cccc(CNCC[C@H]4CN(c5ccc6c(n5)NC(=O)CO6)C(=O)O4)c3)c2)C1 [$183, 6-[(S)-5-(2-{[3′-((1S,3R)-3-amino-cyclopentyloxy)-biphenyl-3-ylmethyl]-amino}-ethyl)-2-oxo-oxazolidin-3-yl]-4H-pyrido[3,2-b][1,4]oxazin-3-one] | 2 (≈ 3.68 µM) | 4 (≈ 7.36 µM) | 4 (≈ 7.36 µM) | 4 (≈ 7.36 µM) |  |  |  | 
18 | NCCOc1cccc(-c2cccc(CNCC[C@H]3CN(c4ccc5c(n4)NC(=O)CO5)C(=O)O3)c2)c1 [Example 1, 6-[(S)-5-(2-{[3′-(2-amino-ethoxy)-biphenyl-3-ylmethyl]-amino}-ethyl)-2-oxo-oxazolidin-3-yl]-4H-pyrido[3,2-b][1,4]oxazin-3-one] | 2 (≈ 3.97 µM) | 2 (≈ 3.97 µM) | 1 (≈ 1.99 µM) | 1 (≈ 1.99 µM) |  |  |  | 
19 | CN(C)CCOc1cccc(-c2cccc(CNCC[C@H]3CN(c4ccc5c(n4)NC(=O)CO5)C(=O)O3)c2)c1 [Example 2, 6-[(S)-5-(2-{[3′-(2-dimethylamino-ethoxy)-biphenyl-3-ylmethyl]-amino}-ethyl)-2-oxo-oxazolidin-3-yl]-4H-pyrido[3,2-b][1,4]oxazin-3-one] | 0.5 (≈ 0.941 µM) | 4 (≈ 7.52 µM) | 2 (≈ 3.76 µM) | 2 (≈ 3.76 µM) |  |  |  | 
